Measured values published in patent publication US6171786A, “Methods for preventing multidrug resistance in cancer cells” (priority 1996, dated 2001).
Entries after “also recorded” stand apart in the source; their conditions may differ. Where two headings read alike, the source gives them in different places.

Legend:
MDR1 expression [1] = experiment: Inhibition of cytotoxic drug-induced MDR1 expression by cytoplasmic calcium antagonists and calmodulin inhibitors; assay type: cell-based, human; settings: H9; 200 μM TMB-8
tumor [2] = settings: cited from earlier work
tumor [3] = settings: nude mice, cited from earlier work
PC-PLC = settings: Wiegmann et al., 1994; cited from earlier work
MDR1 expression [4] = experiment: Inhibition of AraC-induced MDR1 expression by phospholipase C inhibitors (RT-PCR); assay type: cell-based, human; settings: up to 100 μg/mL D609
Method: The inhibitor was added 45 min. prior to the addition of Ara C. Negative control cultures were incubated as above without the addition of either AraC or U73122.
The specificity of phospholipase C-targeted inhibition of MDR1 induction by cytotoxic drugs was determined in a comparative experiment using a known inhibitor of […] phospholipase C (PC-PLC).

MDR1 expression [5] = experiment: Inhibition of cytotoxic drug-induced MDR1 expression by protein kinase inhibitors (cDNA-PCR)
Method: (§1) Cells were plated in 6-well Falcon tissue culture plates at 3,300 cells per well, and incubated in the appropriate concentrations of drugs. Each of the protein kinase inhibitors to be tested were added at the appropriate final concentration 45 minutes prior to MDR1 induction by the addition of Ara-C or TPA, with the exception of herbimycin A, which was added 12 hours prior to Ara-C or TPA, and tyrphostins A25 and B46, which were each added 16 hours prior to MDR1 induction by the addition of Ara-C or TPA. Cells were incubated overnight (TPA) or for 10 hours (Ara-C) at 37° C./ 5% CO2 after the addition of the MDR1 inducing agents before harvesting for cDNA-PCR analysis.
In addition, the analysis of certain drugs imposed added requirements. For experiments using calphostin C, cells were incubated under direct white light illumination. For experiments using D,L-threo-sphingosine, the cell culture medium was pre-treated with the appropriate concentration of the drug for one hour at 37° C. with continuous gentle mixing. After this pretreatment, cells were resuspended in media supplemented with drug and incubated for 45 minutes as described above.
To further evaluate the capacity of protein kinase inhibitors to suppress MDR1 induction by cytotoxic drugs and PKC agonists, H-9 human T-cell leukemia cells were used in cDNA-PCR assays to examine induced MDR1 mRNA expression levels in the presence of protein kinase inhibitors.

PKC = settings: in words; cited from earlier work
protein kinases = settings: Pelosin et al., 1990; cited from earlier work
[6] = system: MDR1 expression (P-glycoprotein); experiment: MDR1/P-glycoprotein expression in human cells treated with TPA, DOG, other agents (Rh123 accumulation, UIC2 staining, cDNA-PCR); assay type: cell-based
Method: KG1 cell line was maintained in Iscove's modified Dulbecco medium with 20% fetal calf serum (FCS) and 2 mM L-glutamine, 100 units/mL penicillin and 100 μg/mL streptomycin (GIBCO Laboratories, Grand Island, N.Y.).
(§2) PBL were treated with 1 ng/mL TPA; H9 and K562 cells with 10 ng/mL TPA; KG1a and KG1 cells with 100 ng/mL TPA and the other cell lines with 10 ng/mL TPA.
Mouse IgG2a isotype control antibody was obtained from Sigma. For staining of PBL with UIC2 mAb or isotype control, 10^6 cells were stained at 4° C. with 10 μg of the antibody for 30 minutes and, after two washes, stained for 30 minutes with 10 μg of FITC-conjugated goat anti-mouse IgG2a antibody (Fisher Scientific, Fairlawn, N.J.), diluted 1:2 with PBS plus 2% FCS. Cells were then washed twice with ice-cold PBS plus 2% FCS, stained with PI and kept on ice until analysis. Essentially the same protocol was used for staining of other cell types except that 2 μg of the secondary antibody were used per 10^6 cells. In some experiments, phycoerythrine (PE)-conjugated goat anti-mouse IgG2a was used as the secondary antibody; no PI was added in such cases.
(§3) (Commercially-available kits (for example, from GIBCO/BRL, Gaithersburg, Md.) can be advantageously modified for making cDNA using random hexamers.) PCR is then performed using the following primers: […]
(§4) (where β2 M represents β2 microglobulin). PCR was performed for β2 M experiments under a regime consisting of 1 cycle comprising denaturation at 94° C. for 3 minutes, primer annealing at 60° C. for 30 seconds, and primer extension at 72° C. for 1 minute, followed by 19 cycles comprising denaturation at 94° C. for 30 seconds, primer annealing at 60° C. for 30 seconds, and primer extension at 72° C. for 1 minute, followed by a final cycle comprising denaturation at 94° C. for 30 seconds, primer annealing at 60° C. for 30 seconds, and primer extension at 72° C. for 5 minutes. MDR1 cDNA sequences were amplified using the identical protocol as for β2 M, but extending the amplification from 19 cycles to 25 cycles. In addition, the cDNA-PCR amplification protocol contained the following modifications: (i) Taq DNA polymerase was added to the PCR mixtures after initial heating of the samples to 94° C. (ii) The yield of the β2 -microglobulin-specific band, obtained after 22-28 cycles of PCR, was used as the primary criterion for equalizing the starting amounts of the cDNA templates in different preparations, in order to account for differential RNA degradation in cells subjected to different types of treatment. ^32 P-labeled PCR products were detected by autoradiography.
A functional assay was used to detect changes in P-glycoprotein activity in human PBL treated with different agents that induce lymphoid differentiation or activation, based on flow cytometric analysis of cellular accumulation of Rh123, which is a P-glycoprotein-transported fluorescent mitochondrial dye. In this assay, cells expressing little or no P-glycoprotein stain brightly with Rh123, whereas cells with higher levels of P-glycoprotein activity appear Rh123-dull. […] Since the best-known cellular effect of TPA is the stimulation of PKC, DOG (a cell-permeable diacylglycerol and a physiological stimulant of PKC) was also tested to determine its effects on Rh123 accumulation in PBL.

[7] = system: MDR1 expression (P-glycoprotein); experiment: MDR1/P-glycoprotein expression in mouse hematopoietic cell lines; assay type: cell-based
Method: as §2
Since PBL comprise a heterogeneous population of many different subtypes, a series of leukemia-derived clonal cells lines were tested for changes in P-glycoprotein expression after treatment with TPA.

MDR1 expression [8] = settings: cited from earlier work
MRP expression = experiment: Inhibition of MRP mRNA expression in H-9 cells (cDNA-PCR); assay type: cell-based, human; settings: 100 nM
Method: Cells were plated in 6-well Falcon tissue culture plates at 3,300 cells per well, and incubated in the appropriate concentrations of drugs. Each of the protein kinase inhibitors to be tested were added at their appropriate final concentrations, and the cells then incubated for 10 hours at 37° C. under an atmosphere of 5% CO2.
PCR was performed using the following primers: […]
(where β2 M represents β2 microglobulin). PCR was performed for β2 M experiments under a regime consisting of 1 cycle comprising denaturation at 94° C. for 3 minutes, primer annealing at 60° C. for 30 seconds, and primer extension at 72° C. for 1 minute, followed by 19 cycles comprising denaturation at 94° C. for 30 seconds, primer annealing at 60° C. for 30 seconds, and primer extension at 72° C. for 1 minute, followed by a final cycle comprising denaturation at 94° C. for 30 seconds, primer annealing at 60° C. for 30 seconds, and primer extension at 72° C. for 5 minutes.
H-9 cells were used to analyze the effect of various protein kinase inhibitors on the expression of the multidrug resistance associated protein MRP (Grant et al., ibid.).

MDR1 expression [9] = experiment: Inhibition of TPA- or DOG-induced MDR1 expression; assay type: cell-based, human; settings: staurosporine 30 nM
Method: as §2, §1

[10] = system: MDR1 expression (P-glycoprotein); experiment: Induction of MDR1 expression by cytotoxic drugs (dye efflux, UIC2, cDNA-PCR); assay type: cell-based, human
Method: as §3, §4
In particular PKC is activated by treatment with Ara-C. Therefore, experiments were performed to test whether Ara-C, which is not transported by P-glycoprotein, would have any effect on P-glycoprotein function in K562 leukemia cells.
(§5) Also assayed was whether drug-induced MDR1 expression was maintained after cytotoxic drug treatment. […] At different times, MDR1 expression in the surviving cells was analyzed by dye efflux and immunofluorescence labeling with UIC2 (FIG. 3C) or by cDNA-PCR (FIG. 4E).

K562 cells = system: K562 cells
Method: FIG. 6A. Growth inhibition by vinblastine in untreated and Ara-C (ARA)- or Adriamycin (ADR)-treated cells. Cells were treated as in FIG. 3C and grown in the absence of drugs for six weeks. Vinblastine inhibition assay was carried out for 10 days.
FIG. 6B. Growth inhibition by vinblastine in untreated cells and Rh123-dull and Rh123-bright populations of Ara-C treated cells. […] One week after sorting, vinblastine inhibition assay was carried out for 7 days.
Cells were plated in duplicate in 96-well microtiter plates at 3,000 cells per well, and allowed to grow in increasing concentrations of different drugs.
as §5

## 8-(dimethylamino)octyl-3,4,5-trimethoxybenzoate hydrochloride [TMB-8]
MDR1 expression [1]
  inhibition of AraC-induced MDR1 gene expression: completely abrogate the ability of AraC to induce MDR1 gene expression

## CCN(CC)CCN1C(=O)c2c(c3c4cccc(Cl)c4n([C@@H]4O[C@H](CO)[C@@H](OC)[C@H](O)[C@H]4O)c3c3[nH]c4c(Cl)cccc4c23)C1=O [BMY 27557, 8-N-(diethylaminoethyl) rebeccamycin]
Tumor [2]; nine injections at 12 mg/kg/injection
  optimal total i.p. dose: 108 mg/kg
Tumor [2]; single dose
  optimal single i.p. dose: 64 mg/kg

## CO[C@@H]1[C@H](N(C)C(=O)c2ccccc2)C[C@H]2O[C@]1(C)n1c3ccccc3c3c4c(c5c6ccccc6n2c5c31)C(=O)NC4 [CGP 41 251]
Tumor [3]; Meyer et al., 1989
  dose showing anti-tumor effect relative to MTD: anti-tumor effect at one-tenth of their maximum tolerated doses

## S=C(S)OC1CC2CC1C1CCCC21 (stereo not shown) [D609, tricyclodecan-9-yl-xanthogenate potassium]
PC-PLC
  concentration known to inhibit PC-PLC: 100 µg/mL
MDR1 expression [4]
  inhibition of AraC-induced expression of MDR1: without an effect; also recorded: incapable of inhibiting AraC-induced expression of MDR1

## N=C(N)NCCNS(=O)(=O)c1cccc2cnccc12 [HA1004]
MDR1 expression [5]
  inhibition of MDR1 induction by cytotoxic drugs: totally ineffective
PKC
  PKC inhibition: inactive against PKC

## CC1CN(S(=O)(=O)c2cccc3cnccc23)CCN1 (stereo not shown) [Iso-H7]
Protein kinases
  weaker effect on protein kinases than H7: 10 fold
MDR1 expression [5]; Iso-H7, H-9 cells
  inhibition of Ara-C induced MDR1 expression: No significant inhibition

## CCCCCCCCCCCCCC(=O)O[C@@H]1[C@@H](C)[C@@]2(O)[C@@H](C=C(CO)C[C@]3(O)C(=O)C(C)=C[C@@H]23)[C@@H]2C(C)(C)[C@]12OC(C)=O [TPA, 12-o-tetradecanoylphorbol-13-acetate]
[6]; EJ bladder carcinoma cells
  increase of MDR1 expression after treatment: increase of MDR1 expression
[6]; H9 cells
  induction of MDR1 mRNA and P-glycoprotein: efficiently induced readily detectable levels of MDR1 expression
[6]; KG1 and KG1a cells (P-glycoprotein positive)
  P-glycoprotein expression after exposure: large increase in their P-glycoprotein expression
[6]; MCF-7 breast carcinoma cells
  increase of MDR1 expression after treatment: increase of MDR1 expression
[6]; human PBL
  levels of P-glycoprotein on the cell surface (UIC2): markedly increased the levels of P-glycoprotein on the cell surface
[6]; normal human PBL and leukemia/solid tumor cell lines
  MDR1 gene expression: increase MDR1 gene expression
[7]; and LBRM 33 lymphoma
  P-glycoprotein expression after exposure: large increase in their P-glycoprotein expression

## O=c1c(O)c(-c2ccc(O)c(O)c2)oc2cc(O)cc(O)c12 [quercetin]
Tumor [3]; i.p. 20 mg/kg, Grunicke et al.
  effect on anti-tumor effect of cisplatin: potentiate the anti-tumor effect of cisplatin
PKC
  PKC inhibition: inhibition of PKC activity
MDR1 expression [8]
  effect on arsenite-induced increase in MDR1 expression: prevent an increase in MDR1 expression

## CN[C@@H]1C[C@H]2O[C@@](C)([C@@H]1OC)n1c3ccccc3c3c4c(c5c6ccccc6n2c5c31)C(=O)NC4 [staurosporine]
[6]; KG1, KG1a (P-glycoprotein positive)
  P-glycoprotein expression, compound alone: significant increase in P-glycoprotein expression
[6]; P-glycoprotein-negative H9 cells
  induction of MDR1 expression, compound alone: did not induce MDR1 expression
[6]; some P-glycoprotein-positive cell lines (human; mouse lines also used)
  P-glycoprotein expression: significantly increased P-glycoprotein expression
MDR1 expression [5]
  prevention of MDR1 induction by chemotherapeutic drugs: prevent MDR1 induction
MDR1 expression [5]; concentration not stated
  inhibition of MDR1 induction by cytotoxic drugs: capable of inhibiting MDR1 induction by cytotoxic drugs
[7]; mouse EL4 and LBRM 33 (P-glycoprotein positive)
  P-glycoprotein expression, compound alone: significant increase in P-glycoprotein expression
MRP expression
  MRP expression: capable of inhibiting MRP expression; also recorded: strongly inhibited
MDR1 expression [9]; H9 cells / P-glycoprotein-negative cells
  inhibition of DOG (diacylglycerol)-induced MDR1 expression: completely abolished MDR1 induction; also recorded: prevent MDR1 induction
MDR1 expression [9]; H9 cells
  inhibition of TPA-induced MDR1 expression: completely abolished MDR1 induction; also recorded: completely inhibited TPA-induced MDR1 expression; also recorded: prevent MDR1 induction

## CC[C@]1(O)C[C@@H]2CN(CCc3c([nH]c4ccccc34)[C@@](C(=O)OC)(c3cc4c(cc3OC)N(C)[C@H]3[C@@](O)(C(=O)OC)[C@H](OC(C)=O)[C@]5(CC)C=CCN6CC[C@]43[C@@H]65)C2)C1 [vinblastine]
[10]
  MDR1 induction: MDR1 induction, both at the mRNA and at the protein levels, was observed
  MDR1 mRNA expression: induce MDR1 mRNA expression
  Rh123 or DiOC2(3) efflux by treated cells: 3-10%
K562 cells
  increase in resistance: 2-3 fold
  increase in the ID10 value: 2-3 fold
